Test results: patent US20120035265A1, “COMPOSITIONS, METHODS, AND DEVICES FOR THE TREATMENT OF DYSMENORRHEA” (MediciNova, Inc., priority 2010, published 2012)

Experiments:
[1] = tested on: uterine muscle isolated from pregnant rats; test: Spontaneous contractions of uterine muscle isolated from pregnant rats (organ bath); type: cell-based; conditions: pregnant rat uterine muscle, mean ± standard error, 10 samples
Method: The experimental operation of this study was as reported by T. Kawarabayashi et al.^1 After each SD-strain rat on Day 21 of pregnancy were exsanguinated to death, the uterus was isolated to prepare up to 8 myometrial strips (about 4 mm×10 mm) in the direction of the longitudinal muscle, with the adhesion to the placenta being avoided.
Each myometrial strip was suspended in an organ bath containing 10 mL of a Locke-Ringer solution at 37° C. (aerated with 95% O2+5% CO2 gas) with a load of about 1.0 g. After the amplitude and frequency of the muscular spontaneous contractions became stable, distilled water was added. Five minutes later, the test, control, or positive control substance was added cumulatively with intervals of 5 minutes. The myometrial contractile force was delivered to a strain pressure amplifier through a force displacement transducer and recorded on a Rectigraph.
Considering the sum of the uterine contraction during 5 minutes after the addition of distilled water as 100%, the response rate to each concentration of the test, control, or positive control substance was calculated from the sum of the uterine contraction after each was added. Variable points (peaks) with amplitude (tension) of 0.2 g or lower were excluded from analysis. Samples showing any of the following events were not used for the study or excluded from analysis.
Microsoft® Excel 2000 (Microsoft Corp.) was used to sum up and analyze data and prepare tables and figures. Using a concentration-response curve obtained for each sample (X axis: log value of the concentration of the drug added, Y axis: response rate), a negative log value (pD2) of the concentration that inhibited the uterine contraction by 50% (EC50) was calculated from a straight line that connects the 2 concentrations above and below 50%, and converted to EC50.

[2] = tested on: uterine muscle isolated from pregnant rats; test: PG F2α-induced contraction of uterine muscle isolated from pregnant rats; type: cell-based, rat; conditions: Rattus norvegicus, contraction induced with 5 μg/mL of PG F2α, mean ± standard error of 10 samples
Method: (§1) After SD-strain rats on Day 17 of pregnancy were exsanguinated to death, the uterus was isolated to prepare up to 8 myometrial strips (about 4 mm×10 mm) per animal in the direction of the longitudinal muscle while avoiding the adhesion to the placenta. Each strip was suspended in an organ bath containing 10 mL of a modified Locke-Ringer solution at […] (aerated with 95% O2+5% CO2 gas) with a load of about 1.0 g. After the suspended sample became stable for static tension, 5 μg/mL of PG F2α or 1 mU/mL of oxytocin was added to induce contraction. After the sample was allowed to stand for at least 30 minutes to confirm stable rhythmic contraction for frequency and amplitude, the test, control, or positive control substance solution was added cumulatively at intervals of 5 minutes. After the treatment was completed, 1×10^−5 mol/L of forskolin was added to obtain maximal relaxation. The contractile force of the uterine sample was delivered via a force displacement transducer to a strain pressure amplifier and recorded on a Rectigraph.
(§2) Considering the sum of the uterine contraction for 5 minutes before treatment as 100%, the response rate to each concentration of the test, control, or positive control substance solution was calculated from the sum of uterine contraction after treatment for both PG F2α and oxytocin induced contraction. Then, the response rates obtained were used to prepare a concentration-response curve for each sample. The maximum relaxation obtained by adding forskolin was considered as a baseline. Variable points (peaks) with amplitude (tension) of […] or lower were excluded from analysis. Samples showing any of the following events were not used for the study or excluded from analysis.
(§3) Microsoft® Excel 2000 (Microsoft Corp.) was used to sum up and calculate data and prepare tables and figures. Using a concentration-response curve prepared for each sample (X axis: log value of the concentration of the substance added, Y axis: response rate), a negative log value (pEC50) of the concentration that inhibited the uterine contraction by 50% (EC50) was calculated from a straight line connecting the 2 concentrations just above and below 50%, and then converted to EC50 (unit: mol/L).

[3] = tested on: uterine muscle isolated from pregnant rats; test: Oxytocin-induced contraction of uterine muscle isolated from pregnant rats; type: cell-based, rat; conditions: Rattus norvegicus, contraction induced with 1 mU/mL of oxytocin, mean ± standard error of 10 samples
Method: as §1, §2, §3

[4] = tested on: uterine activity of anesthetized pregnant rats; test: Uterine motility of anesthetized pregnant rats (balloon method); type: in vivo, rat
Method: (§4) Rats were anesthetized with urethane, and experiments were conducted based on balloon method. Uterine activity and mean blood pressure of dam were led to a pressure amplifier via a pressure transducer. As for heart rate, pulse waves were led to tachometer. Recti-graphs were used for recording. The test substance, control substance, or positive control substance was administered intravenously and cumulatively every 15 minutes, while doses were increased gradually.

[5] = tested on: heart rate and mean blood pressure of dam; test: Heart rate and mean blood pressure of dam in anesthetized pregnant rats; type: in vivo, rat; conditions: intravenous cumulative dosing
Method: as §4

[6] = tested on: women with primary dysmenorrhea; test: Myometrial activity, uterine blood flow and lower abdominal pain in women with primary dysmenorrhea (intravenous MN-221); type: in vivo, human
Method: Myometrial activity and uterine blood flow is recorded in a group of women, aged 16 to 39 years. All have regular cycles of 25 to 32 days. They suffer regularly from menstrual pain. All are so disabled by the condition that they have to abstain from work for one to three days a month, even if they use non-narcotic analgesics. At least during the first menstrual day, all have a continuous lower abdominal pain, which varies in intensity; most of them also complain of symptoms such as nausea and vomiting. The symptoms during the recordings conform to those experienced during previous menstruations.
In the menstrual cycle preceding the investigation, all women have biphasic basal body temperature recordings, and plasma oestradiol and progesterone concentrations which are higher in the middle of the luteal phase than on the first menstrual day. Recordings are made; each begin within 24 hours of the onset of menstruation lasting for more than three hours.
Myometrial activity is recorded as changes in intrauterine pressure by a microtransducer catheter. The transducer is connected to an amplifier and a potentiometer recorder. Uterine blood flow is recorded by a technique based on measuring thermodilution from a heated thermistor to blood flow in the surrounding tissue. The thermistor is placed in contact with the endometrium of the fundus and, consequently, the recordings mainly reflect the blood flow at that site. The thermistor and the pressure transducer are inserted through the cervical canal into the uterus. The receptors are kept in position by the rigidity of the transducer catheter and by use of sterile paste around the catheters in the vagina.
The patients are asked to report all symptoms during recordings, including changes in character and intensity of the menstrual pain. MN-221 is given as a single bolus intravenous injection of 0.30 mg, 0.60 mg, or 0.90 mg. Before and after the administration of MN-221, pulse rate and arterial blood pressure (measured by auscultation) are registered at 5-minute intervals.

[7] = inhibition of uterine motility, anesthetized pregnant rats
[8] = single bolus intravenous injection of 0.30 mg, 0.60 mg, or 0.90 mg

EC50 ([1]; read-out: EC50): 1.01 ± 0.27 nM | EC50 ([1]; read-out: pD2 (converted)): 0.692 nM | EC50 ([2]; read-out: EC50): 66.4 ± 19.3 nM | EC50 ([2]; read-out: pEC50 (converted)): 51.3 nM | EC50 ([3]; read-out: EC50): 2.25 ± 0.44 nM | EC50 ([3]; read-out: pEC50 (converted)): 1.86 nM
Compound: CN(C)C(=O)COc1ccc2c(c1)C[C@@H](NC[C@H](O)c1ccc(O)c(CCO)c1)CC2 [MN-221, (−)-bis(2-{[(2S)-2-({(2R)-2-hydroxy-2-[4-hydroxy-3-(2-hydroxyethyl)phenyl]ethyl}amino)-1,2,3,4-tetrahydronaphthalen-7-yl]oxy}-N,N-dimethyl-acetamide) monosulfate]
inhibition of uterine motility ([4]; anesthetized pregnant rats, intravenous cumulative dosing): inhibited uterine motility dose-dependently | potency relative to HSR-81 [4, 7]: approximately 4 times | potency relative to ritodrine [4, 7]: approximately 400 times | potency relative to terbutaline [4, 7]: approximately 5.5 times | ED30 values ([4]; uterine motility, intravenous cumulative dosing every 15 minutes, urethane-anesthetized pregnant rats): 0.13 µg/kg/min | decrease in mean blood pressure of dam [5]: significantly small | effect to increase heart rate of dam [5]: significantly weaker than that of any of other agents | pain relief ([6]; after injection or infusion): pain relief within one minute after injection | increase in heart rate, blood pressure, palpitations, tremors, and/or flushes ([6]; intravenous, all subjects): substantially no increase in heart rate, blood pressure, palpitations, tremors, and/or flushes | duration of effect ([6]; single bolus intravenous injection): lasts for few hours | local uterine blood flow [6, 8]: generally increases | myometrial activity [6, 8]: decreases the myometrial activity
